Data reported in patent US20240252546A1, “NEURITE OUTGROWTH PROMOTION KIT AND USE THEREFOR” (KEIO UNIVERSITY, priority 2021, published 2024).

Columns and labels:
phosphorylated p38 = test: Effect of RK-682 on phosphorylation of p38 (Experimental Example 9); assay type: cell-based, human; settings: 201B7 neurospheres; 20 μM RK-682, 24 hours; vs control
Procedure: (§1) Neurospheres derived from 201B7 cells, which are cells of a human iPS cell line, were prepared in the same manner as in Experimental Example 1. Subsequently, the neurospheres were cultured for 24 hours in the presence of RK-682 at a final concentration of 20 μM. In addition, as a control, a group to which RK-682 was not added was also prepared. Subsequently, each neurosphere was fixed with paraformaldehyde and subjected to immunostaining of each of the phosphorylated p38 and the phosphorylated CDC25B.

[1] = test system: nerve cells induced from neurospheres derived from 201B7 cells; test: Effect of RK-682 on neurite outgrowth (Experimental Example 10); assay type: cell-based, human; settings: 201B7 neurospheres; 20 μM RK-682, 24 hours, differentiated 14 days; vs control
Procedure: as §1, with “prepared.” for “prepared. Subsequently, each neurosphere was fixed with paraformaldehyde and subjected to immunostaining of each of the phosphorylated p38 and the phosphorylated CDC25B.”
(§2) Subsequently, each neurosphere was seeded on a 48-well chamber slide (IWAKI & CO., LTD.) coated with poly-L-ornithine/fibronectin, cultured for 14 days in a culture medium containing no growth factor at 37° C. in an environment of 95% air and 5% CO2, and differentiated into nerve cells.
Subsequently, each of the obtained nerve cells was fixed with 4% paraformaldehyde in 0.1 M PBS, and each of βIII-tubulin which is a nerve cell marker, and the Tau protein which is frequently distributed in axons, was immunostained, and the length of the neurite was measured.

phosphorylated CDC25B [2] = test: Effect of RK-682 on phosphorylation of CDC25B (Experimental Example 9); assay type: cell-based, human; settings: 201B7 neurospheres; 20 μM RK-682, 24 hours; vs control
Procedure: as §1

CDC25B = target: T1, CDC25B (Homo sapiens, UniProt P30305); settings: "it is said"; cited from earlier work
T1 sequence (P30305 1-580): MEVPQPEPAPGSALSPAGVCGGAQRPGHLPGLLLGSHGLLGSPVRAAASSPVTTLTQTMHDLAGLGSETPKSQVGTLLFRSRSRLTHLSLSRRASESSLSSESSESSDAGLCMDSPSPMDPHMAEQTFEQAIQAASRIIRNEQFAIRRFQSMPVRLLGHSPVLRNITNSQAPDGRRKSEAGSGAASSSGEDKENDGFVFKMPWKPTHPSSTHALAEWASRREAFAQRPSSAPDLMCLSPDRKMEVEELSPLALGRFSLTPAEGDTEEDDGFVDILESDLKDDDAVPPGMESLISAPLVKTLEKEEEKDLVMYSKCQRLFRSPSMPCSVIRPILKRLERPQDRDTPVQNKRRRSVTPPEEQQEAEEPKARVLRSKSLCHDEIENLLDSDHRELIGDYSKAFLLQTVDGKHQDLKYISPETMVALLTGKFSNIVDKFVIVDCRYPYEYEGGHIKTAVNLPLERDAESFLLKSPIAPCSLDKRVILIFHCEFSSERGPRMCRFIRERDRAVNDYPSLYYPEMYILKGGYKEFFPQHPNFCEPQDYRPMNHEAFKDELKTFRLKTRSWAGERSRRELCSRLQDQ

phosphorylated CDC25B [3] = test: Effect of addition of SB203580 on phosphorylation of CDC25B (Experimental Example 6); assay type: cell-based, human
Procedure: (§3) Neurospheres derived from 201B7 cells, which are cells of a human iPS cell line, were prepared in the same manner as in Experimental Example 1. Subsequently, each neurosphere was cultured for 24 hours in the presence of each of DAPT and Compound 34. DAPT and Compound 34 were used at the same concentrations as in Experimental Example 1. In addition, in this case, SB203580 (CAS number: 152121-47-6), which is a p38 inhibitor, was added to the culture medium at a final concentration of 20 μM. In addition, a group to which SB203580 had not been added was also prepared as a control.
Subsequently, each neurosphere was fixed with paraformaldehyde and subjected to immunostaining of phosphorylated CDC25B.
In FIG. 12(c), “DAPT” indicates it is the result obtained from the control into which the DAPT treatment has been carried out in the absence of SB203580, and “DAPT+SB203580” indicates it is the result obtained by carrying out the DAPT treatment in the presence of SB203580.

[4] = test system: nerve cells induced from neurospheres derived from 201B7 cells; test: Effect of addition of SB203580 on neurite outgrowth (Experimental Example 7); assay type: cell-based, human; settings: differentiated 14 days
Procedure: as §3, §2
Subsequently, each of the obtained nerve cells was fixed with 4% paraformaldehyde in 0.1 M PBS, and each of βIII-tubulin which is a nerve cell marker, and the Tau protein which is frequently distributed in axons, was immunostained, and the length of the neurite was measured. […]

[5] = 20 μM SB203580 during Compound 34 treatment (1 μM, 24 hours), vs without SB203580
[6] = 20 μM SB203580 during DAPT treatment (10 μM, 24 hours), vs DAPT without SB203580

| SMILES | amount of phosphorylated p38 in the neurosphere (phosphorylated p38) | neurite outgrowth (neurite length), βIII-tubulin immunostaining [1] | neurite outgrowth, Tau protein immunostaining [1] | amount of phosphorylated CDC25B in the neurosphere (phosphorylated CDC25B [2]) | dephosphorylation inhibitory effect on CDC25B (CDC25B) | increase in the amount of phosphorylated CDC25B in the neurosphere (phosphorylated CDC25B [3]; [5]) | increase in the amount of phosphorylated CDC25B in the neurosphere (phosphorylated CDC25B [3]; [6]) | neurite outgrowth (neurite length) [4, 5] | neurite outgrowth (neurite length) [4, 6] |
| --- | --- | --- | --- | --- | --- | --- | --- | --- | --- |
| CCCCCCCCCCCCCCCC(=O)C1=C(O)[C@@H](CO)OC1=O [RK-682] | significantly increased | significantly promoted | significantly promoted | significantly increased | does not have a dephosphorylation inhibitory effect | – | – | – | – |
| C[S+]([O-])c1ccc(-c2nc(-c3ccncc3)c(-c3ccc(F)cc3)[nH]2)cc1 (stereo not drawn) [SB203580] | – | – | – | – | – | significantly suppressed | significantly suppressed | significantly suppressed | significantly suppressed |
